Measured values from ChEMBL document CHEMBL1201862, “PubChem BioAssay data set” (2004).
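Five concentrations, 48 hours, 96-well plates. GI50 marks 50% less growth.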 Calls of active or inactive are those of the source. Rule as the data show it: active = GI50 up to about 1.1 µM and inactive = higher. Where a SMILES comes first, the peptide text is derived from it. [ ]: non-standard residue; d: D form. The star is where a group is joined. Bn2Val = CC(C)[C@@H](C(=O)*)N(Cc1ccccc1)Cc1ccccc1; NH(3,4-diMeO-benzyl) = COc1ccc(CN*)cc1OC; NMeV = CN[C@H](C(=O)O)C(C)C

How the values were obtained:
Assay in all cases: NCI-60 cell line screen, 48 h
[1] = system: BT-549
[2] = system: CAKI-1
[3] = system: CCRF-CEM
[4] = system: DU-145
[5] = system: EKVX
[6] = system: HCC 2998
[7] = system: HT-29
[8] = system: MCF7
[9] = system: MDA-N
[10] = system: MOLT-4
[11] = system: OVCAR-4
[12] = system: OVCAR-5
[13] = system: OVCAR-8
[14] = system: SF-539
[15] = system: SK-MEL-2
[16] = system: SK-OV-3
[17] = system: SNB-19
[18] = system: UO-31
[19] = system: M14
[20] = system: SR

C=C(CO)[C@H]1CC/C(C)=C/CC/C(C)=C/C/C=C(\C)[C@H](O)C1
GI50 [1]: 23.1 µM (inactive)
GI50 [2]: 31.3 µM (inactive)
GI50 [3]: > 100 µM (inactive)
GI50 [4]: 49.3 µM (inactive)
GI50 [5]: 33.2 µM (inactive)
GI50 [6]: 15.2 µM (inactive)
GI50 [7]: 18.5 µM (inactive)
GI50 [8]: 26 µM (inactive)
GI50 [9]: 34.5 µM (inactive)
GI50 [10]: 18.3 µM (inactive)
GI50 [11]: 46.7 µM (inactive)
GI50 [12]: 47.1 µM (inactive)
GI50 [13]: 17.8 µM (inactive)
GI50 [14]: 23.5 µM (inactive)
GI50 [15]: 22.8 µM (inactive)
GI50 [16]: > 100 µM (inactive)
GI50 [17]: 47.4 µM (inactive)
GI50 [18]: 30.9 µM (inactive)

O=S(=O)(SC1=NCCN1)c1ccc2ccccc2c1
GI50 [1]: 24.5 µM (inactive)
GI50 [2]: 95.1 µM (inactive)
GI50 [3]: 21 µM (inactive)
GI50 [4]: 32 µM (inactive)
GI50 [5]: 33.2 µM (inactive)
GI50 [6]: 20.6 µM (inactive)
GI50 [7]: 20 µM (inactive)
GI50 [19]: 23.3 µM (inactive)
GI50 [8]: 29.4 µM (inactive)
GI50 [9]: 19.8 µM (inactive)
GI50 [10]: 24.8 µM (inactive)
GI50 [11]: 52.4 µM (inactive)
GI50 [12]: 18.8 µM (inactive)
GI50 [13]: 20.7 µM (inactive)
GI50 [14]: 23.8 µM (inactive)
GI50 [15]: 24.8 µM (inactive)
GI50 [16]: 22.6 µM (inactive)
GI50 [17]: 20.2 µM (inactive)
GI50 [18]: 29.4 µM (inactive)

c1ccc2c(NCCCCCCCCNc3c4ccccc4nc4ccccc34)c3ccccc3nc2c1
GI50 [1]: 1.16 µM (inactive)
GI50 [2]: 0.546 µM (active)
GI50 [3]: < 0.0278 µM (active)
GI50 [4]: 0.0838 µM (active)
GI50 [5]: 0.323 µM (active)
GI50 [6]: 0.0723 µM (active)
GI50 [7]: < 0.0281 µM (active)
GI50 [19]: 0.975 µM (active)
GI50 [8]: 0.0578 µM (active)
GI50 [10]: 0.0419 µM (active)
GI50 [11]: 0.887 µM (active)
GI50 [12]: 0.23 µM (active)
GI50 [13]: 0.27 µM (active)
GI50 [14]: 0.233 µM (active)
GI50 [15]: 0.733 µM (active)
GI50 [16]: 0.553 µM (active)
GI50 [17]: 0.332 µM (active)
GI50 [20]: 0.024 µM (active)
GI50 [18]: 1.35 µM (inactive)

O=c1[nH]nc(-c2ccccc2)n1/N=C/c1cccc([N+](=O)[O-])c1
GI50 [1]: > 100 µM (inactive)
GI50 [2]: > 100 µM (inactive)
GI50 [3]: > 100 µM (inactive)
GI50 [4]: > 100 µM (inactive)
GI50 [5]: > 100 µM (inactive)
GI50 [6]: > 100 µM (inactive)
GI50 [7]: > 100 µM (inactive)
GI50 [19]: > 100 µM (inactive)
GI50 [8]: > 100 µM (inactive)
GI50 [10]: > 100 µM (inactive)
GI50 [11]: > 100 µM (inactive)
GI50 [12]: > 100 µM (inactive)
GI50 [13]: 93.5 µM (inactive)
GI50 [14]: 30.1 µM (inactive)
GI50 [15]: > 100 µM (inactive)
GI50 [16]: 14.9 µM (inactive)
GI50 [17]: 98.6 µM (inactive)
GI50 [20]: 77.8 µM (inactive)
GI50 [18]: > 100 µM (inactive)

COc1ccc(C2C3COc4ccccc4C3=NN2c2ccccc2)cc1 (stereo not given)
GI50 [1]: > 100 µM (inactive)
GI50 [2]: > 100 µM (inactive)
GI50 [3]: > 100 µM (inactive)
GI50 [5]: > 100 µM (inactive)
GI50 [7]: 87.1 µM (inactive)
GI50 [19]: > 100 µM (inactive)
GI50 [8]: 63.8 µM (inactive)
GI50 [9]: > 100 µM (inactive)
GI50 [10]: 92.5 µM (inactive)
GI50 [11]: > 100 µM (inactive)
GI50 [12]: > 100 µM (inactive)
GI50 [13]: > 100 µM (inactive)
GI50 [14]: > 100 µM (inactive)
GI50 [15]: > 100 µM (inactive)
GI50 [16]: > 100 µM (inactive)
GI50 [17]: > 100 µM (inactive)
GI50 [20]: 31.6 µM (inactive)
GI50 [18]: > 100 µM (inactive)

COc1ccc(CNC(=O)[C@@H]2CCCN2C(=O)[C@@H]2CCCN2C(=O)[C@H](C(C)C)N(C)C(=O)[C@@H](NC(=O)[C@H](C(C)C)N(Cc2ccccc2)Cc2ccccc2)C(C)C)cc1OC (Bn2Val-V[NMeV]PP-{NH(3,4-diMeO-benzyl)})
GI50 [1]: 14.7 µM (inactive)
GI50 [2]: 15.8 µM (inactive)
GI50 [3]: 4.23 µM (inactive)
GI50 [4]: 14.8 µM (inactive)
GI50 [5]: 13.4 µM (inactive)
GI50 [7]: 8.3 µM (inactive)
GI50 [19]: 14.6 µM (inactive)
GI50 [9]: 14.7 µM (inactive)
GI50 [10]: 4.39 µM (inactive)
GI50 [11]: 18 µM (inactive)
GI50 [12]: 18.5 µM (inactive)
GI50 [13]: 14.5 µM (inactive)
GI50 [14]: 17.1 µM (inactive)
GI50 [15]: 13.4 µM (inactive)
GI50 [16]: 16.9 µM (inactive)
GI50 [17]: 15.9 µM (inactive)
GI50 [20]: 4.54 µM (inactive)
